Cc1ccc(NC(=O)C(C)Cl)cc1 (stereo not given)
Conditions	solubility (mole fraction)
in 2-butanone, 271.23 K	0.0774
in 2-butanone, 275.52 K	0.0829
in 2-butanone, 280.9 K	0.0892
in 2-butanone, 285.45 K	0.105
in 2-butanone, 291.46 K	0.115
in 2-butanone, 296.73 K	0.128
in 2-butanone, 302.41 K	0.13
in 2-butanone, 307.63 K	0.149
in 2-butanone, 313.15 K	0.173
in 2-butanone, 319.11 K	0.208
in acetone, 271.96 K	0.0616
in acetone, 283.37 K	0.0767
in acetone, 287.02 K	0.0811
in acetone, 290.81 K	0.0861
in acetone, 294.37 K	0.0917
in acetone, 300.04 K	0.105
in acetone, 302.89 K	0.114
in acetone, 307.95 K	0.136
in acetone, 310.94 K	0.15
in acetone, 315.55 K	0.155
in toluene, 273.24 K	0.00517
in toluene, 278.33 K	0.00719
in toluene, 285.5 K	0.00929
in toluene, 290.93 K	0.0125
in toluene, 297.29 K	0.0168
in toluene, 301.24 K	0.02
in toluene, 307.73 K	0.0278
in toluene, 312.06 K	0.0356
in toluene, 315.66 K	0.0413
in toluene, 321.66 K	0.0579
